In patent US11578043B2, “Salt of delmopinol” (Lundbeck Pharmaceuticals Italy S.p.A., priority 2017, dated 2023):
Where a name gives a salt, the structure may show the parent alone.

Tests used:
[1] = XRPD of the salt before and after DVS (solid state change on exposure to humidity); type: physicochemical; conditions: after DVS experiments at 95% RH
Experimental: The XRPD diffractograms in FIGS. 5 and 6 were obtained using CuKα1 radiation (λ=1.5406 Å). […] The hygroscopicity of delmopinol HCl is reflected in FIG. 4 depicting the DVS diagram obtained at 25° C. by the method described in Example 4. […] These diffractograms were obtained on another instrument.

[2] = Dynamic Vapour Sorption (DVS) experiments; type: physicochemical; conditions: DVS at 25° C.; for water / moisture absorbed (change in mass) when humidity is increased to 95%: relative humidity from 30% RH up to 95% RH in steps of 10% RH; for hygroscopicity (in words): up to 95% RH, non-hygroscopic = less than 1.5% moisture absorbed at 95% RH
Experimental: The DVS experiments depicted in FIGS. 3 and 4 were performed at 25° C. […] In the present context, a “non-hygroscopic” salt of delmopinol indicates a salt wherein less than 1.5% moisture is absorbed when the salt is exposed to 95% RH at 25° C. for example when determined by Dynamic Vapor Sorption (DVS) according to the method of Example 4. Dynamic Vapour Sorption (DVS) experiments were performed for delmopinol HCl and delmopinol citrate using a SMS DVS Advantage 01 changing the relative humidity from 30% RH up to 95% RH in steps of 10% RH.

change of solid state caused by exposure to humidity (XRPD after DVS vs non-exposed material) [1]	humidity at which the salt starts absorbing water [2]	water / moisture absorbed (change in mass) when humidity is increased to 95% [2]	hygroscopicity (in words) [2]	SMILES
irreversible	below 50 % humidity	about 45%	very hygroscopic	CCCC(CCC)CCCC1COCCN1CCO (stereo not drawn) [delmopinol HCl, 2-(3-(4-propylheptyl)morpholino)ethan-1-ol]
–	–	less than 1.5%	non-hygroscopic	CCCC(CCC)CCCC1COCCN1CCO.O=C(O)CC(O)(CC(=O)O)C(=O)O (stereo not drawn) [delmopinol citrate, 2-(3-(4-propylheptyl)morpholino)ethan-1-ol]
